Measurements as given in US8796253B2, “Heteroaryl substituted pyrazole derivatives useful for treating hyper-proliferative disorders and diseases associated with angiogenesis” (Bayer Intellectual Property GmbH, priority 2007, dated 2014).

These molecules were tested on HCT-116 cells stably transfected with a Luciferase reporter gene under the control of HIF-responsive element (assay: HIF-Luciferase Assay). Details: Homo sapiens, HCT-116, HIF-Luciferase Assay, HCT-116 reporter cells, overnight at 1% oxygen; group >10, unit inferred.
Type: cell-based
Procedure: HCT-116 cells stably transfected with a Luciferase reporter gene under the control of HIF-responsive element were plated in white 96- or 384-well plates at 30,000 or 5,000 cells/well, respectively, in 50 μL/well media (RPMI with 10% fetal bovine serum and 100 μg/mL Hygromycin). Cells were incubated overnight at 37° C. in a humidified incubator containing 5% CO2 under normal oxygen. The next day test compounds were added to the wells at various concentrations (0-10 μM, 0.1% final DMSO concentration) and placed in a hypoxic chamber overnight at 1% oxygen. Following the exposure to hypoxic conditions, 50 μL/well of Bright Glo reagent (Promega, Wisconsin, USA) was added to the wells and luminescence was measured after 5 min. Cells incubated under normal oxygen levels were used as background control. […] Compounds that have IC50 values between 1 μM and 10 μM include those of Examples 8, 16, 38, 39, 40, 41, 42, 43, 47, 48, 53, 54, 56, 57, 66, 69, and 72.

Row | IC50 [nM] | SMILES
1 | > 10000 | Cc1ccc(Cn2nc(C3=NC(c4ccc(C(C)(C)C)cc4)CO3)cc2C)cc1 (centres unmarked) [Example 70, 4-(4-tert-butylphenyl)-2-[5-methyl-1-(4-methylbenzyl)-1H-pyrazol-3-yl]-4,5-dihydro-1,3-oxazole]
2 | > 10000 | Cc1ccc(Cn2nc(C3=NC(C(C)C)CO3)cc2C)cc1 (centres unmarked) [Example 71, 4-isopropyl-2-[5-methyl-1-(4-methylbenzyl)-1H-pyrazol-3-yl]-4,5-dihydro-1,3-oxazole]

Same assay, conditions: Homo sapiens, HCT-116, HIF-Luciferase Assay, HCT-116 reporter cells, overnight at 1% oxygen; individual values

Row | SMILES | IC50 [nM]
3 | Cc1ccc(Cn2nc(-c3nc(-c4ccc(OCC(F)(F)F)cc4)no3)cc2C)cc1 [Example 18, 5-[5-Methyl-1-(4-methylbenzyl)-1H-pyrazol-3-yl]-3-[4-(2,2,2-trifluoroethoxy)phenyl]-1,2,4-oxadiazole] | 30
4 | Cc1ccc(Cn2nc(-c3nc(-c4ccc(C(C)(C)C)cc4)no3)cc2C)cc1 [Example 4, 3-(4-tert-butylphenyl)-5-[5-methyl-1-(4-methylbenzyl)-1H-pyrazol-3-yl]-1,2,4-oxadiazole] | 5
5 | Cc1ccc(Cn2nc(-c3nc(-c4ccc(OC(F)(F)F)cc4)no3)cc2C)cc1 [Example 1] | 30

Other lines, results leading:

Row | IC50 [nM] | SMILES
6 | 6 | Cc1ccc(Cn2nc(-c3nc(-c4ccc(C5CCCCC5)cc4)c[nH]3)cc2C)cc1 [Example 68, 3-[4-(4-cyclohexylphenyl)-1H-imidazol-2-yl]-5-methyl-1-(4-methylbenzyl)-1H-pyrazole]
7 | 5 | Cc1ccc(Cn2nc(-c3nc4ccc(-c5ccc(F)cc5)cc4[nH]3)cc2C)cc1 [Example 59, 6-(4-Fluorophenyl)-2-[5-methyl-1-(4-methylbenzyl)-1H-pyrazol-3-yl]-1H-benzimidazole]
8 | 50 | Cc1ccc(Cn2nc(-c3nc(-c4ccc(C5CCCCC5)cc4)co3)cc2C)cc1 [Example 81, 4-(4-Cyclohex-1-ylphenyl)-2-[5-methyl-1-(4-methylbenzyl)-1H-pyrazol-3-yl]-1,3-oxazole]
9 | 20 | Cc1cc(-c2nc(-c3ccc(OC(F)(F)F)cc3)no2)nn1Cc1ccc(Cl)cc1 [Example 120, 5-[1-(4-Chlorobenzyl)-5-methyl-1H-pyrazol-3-yl]-3-[4-(trifluoromethoxy)phenyl]-1,2,4-oxadiazole]
10 | 10 | Cc1ccc(Cn2nc(-c3nc(-c4ccc(C(C)(C)F)cc4)no3)cc2C)cc1 [Example 103, 3-[4-(1-fluoro-1-methylethyl)phenyl]-5-[5-methyl-1-(4-methylbenzyl)-1H-pyrazol-3-yl]-1,2,4-oxadiazole]
11 | 8 | Cc1ccc(Cn2nc(-c3nc(-c4ccc(-c5ccccc5)cc4)c[nH]3)cc2C)cc1 [Example 67, 3-(4-biphenyl-4-yl-1H-imidazol-2-yl)-5-methyl-1-(4-methylbenzyl)-1H-pyrazole]

Same assay, conditions: Homo sapiens, HCT-116, HIF-Luciferase Assay, HCT-116 reporter cells, overnight at 1% oxygen; potency groups

Row | SMILES | IC50 [nM]
12 | Cc1ccc(Cn2nc(-c3nc(-c4ccccc4)no3)cc2C)cc1 [Example 9, 5-[5-methyl-1-(4-methylbenzyl)-1H-pyrazol-3-yl]-3-phenyl-1,2,4-oxadiazole] | ≤ 1000
13 | Cc1ccc(Cn2nc(-c3nc(-c4ccc(N5CCOCC5)cc4)no3)cc2C)cc1 [Example 21, 4-(4-{5-[5-Methyl-1-(4-methylbenzyl)-1H-pyrazol-3-yl]-1,2,4-oxadiazol-3-yl}phenyl)morpholine] | ≤ 1000
14 | Cc1ccc(Cn2nc(-c3nc4cc5ccccc5cc4[nH]3)cc2C)cc1 [Example 47, 2-[5-methyl-1-(4-methylbenzyl)-1H-pyrazol-3-yl]-1H-naphtho[2,3-d]imidazole] | 1000 to 10000
15 | Cc1ccc(Cn2nc(-c3nc4cc(-c5ccccc5)ccc4o3)cc2C)cc1 [Example 29, 2-[5-Methyl-1-(4-methylbenzyl)-1H-pyrazol-3-yl]-5-phenyl-1,3-benzoxazole] | ≤ 1000
16 | Cc1ccc(Cn2nc(-c3nc(-c4ccncc4)no3)cc2C)cc1 [Example 14, 4-{5-[5-Methyl-1-(4-methylbenzyl)-1H-pyrazol-3-yl]-1,2,4-oxadiazol-3-yl}pyridine] | ≤ 1000
17 | Cc1ccc(Cn2nc(-c3nc4ccc(-c5ccccc5)cc4[nH]3)cc2C)cc1 [Example 45, 2-[5-methyl-1-(4-methylbenzyl)-1H-pyrazol-3-yl]-6-phenyl-1H-benzimidazole] | ≤ 1000
18 | Cc1ccc(Cn2nc(-c3nc4ccc(Cl)cc4[nH]3)cc2C)cc1 [Example 41, 6-chloro-2-[5-methyl-1-(4-methylbenzyl)-1H-pyrazol-3-yl]-1H-benzimidazole] | 1000 to 10000
19 | Cc1ccc(Cn2nc(-c3nc(-c4ccc(F)cc4)no3)cc2C)cc1 [Example 10, 3-(4-fluorophenyl)-5-[5-methyl-1-(4-methylbenzyl)-1H-pyrazol-3-yl]-1,2,4-oxadiazole] | ≤ 1000
20 | Cc1ccc(Cn2nc(-c3nc4cc(-c5ccccc5F)ccc4o3)cc2C)cc1 [Example 35, 5-(2-fluorophenyl)-2-[5-methyl-1-(4-methylbenzyl)-1H-pyrazol-3-yl]-1,3-benzoxazole] | ≤ 1000
21 | Cc1ccc(Cn2nc(-c3nc4ccc(C(F)(F)F)cc4[nH]3)cc2C)cc1 [Example 44, 2-[5-methyl-1-(4-methylbenzyl)-1H-pyrazol-3-yl]-6-(trifluoromethyl)-1H-benzimidazole] | ≤ 1000
22 | Cc1ccc(Cn2nc(-c3nc4ccc(Br)cc4[nH]3)cc2C)cc1 [Example 37, 6-Bromo-2-[5-methyl-1-(4-methylbenzyl)-1H-pyrazol-3-yl]-1H-benzimidazole] | ≤ 1000
23 | Cc1ccc(Cn2nc(-c3nc4ccccc4o3)cc2C)cc1 [Example 31, 2-[5-methyl-1-(4-methylbenzyl)-1H-pyrazol-3-yl]-1,3-benzoxazole] | ≤ 1000
24 | Cc1ccc(Cn2nc(-c3nc4cc(-c5cccc(Cl)c5)ccc4o3)cc2C)cc1 [Example 36, 5-(3-chlorophenyl)-2-[5-methyl-1-(4-methylbenzyl)-1H-pyrazol-3-yl]-1,3-benzoxazole] | ≤ 1000
25 | COCC(=O)Nc1ccc(-c2noc(-c3cc(C)n(Cc4ccc(C)cc4)n3)n2)cc1 [Example 27, 2-methoxy-N-(4-{5-[5-methyl-1-(4-methylbenzyl)-1H-pyrazol-3-yl]-1,2,4-oxadiazol-3-yl}phenyl)acetamide] | ≤ 1000
26 | Cc1ccc(Cn2nc(-c3nc(-c4ccc(OCC(F)(F)F)cc4)no3)cc2C)cc1 [Example 18, 5-[5-Methyl-1-(4-methylbenzyl)-1H-pyrazol-3-yl]-3-[4-(2,2,2-trifluoroethoxy)phenyl]-1,2,4-oxadiazole] | ≤ 1000
27 | Cc1ccc(Cn2nc(-c3nc(-c4ccc(OCc5ccc(Cl)cc5)cc4)no3)cc2C)cc1 [Example 2, 3-{4-[(4-chlorobenzyl)oxy]phenyl}-5-[5-methyl-1-(4-methylbenzyl)-1H-pyrazol-3-yl]-1,2,4-oxadiazole] | ≤ 1000
28 | Cc1ccc(Cn2nc(-c3nc(-c4ccc(C(C)(C)C)cc4)no3)cc2C)cc1 [Example 4, 3-(4-tert-butylphenyl)-5-[5-methyl-1-(4-methylbenzyl)-1H-pyrazol-3-yl]-1,2,4-oxadiazole] | ≤ 1000
29 | Cc1ccc(Cn2nc(-c3nc(-c4ccc(OC(F)(F)F)cc4)no3)cc2C)cc1 [Example 1] | ≤ 1000

Further lines, results first:

Row | IC50 [nM] | SMILES
30 | ≤ 1000 | Cc1ccc(Cn2nc(-c3nc4ccc(-c5cccc(Cl)c5)cc4[nH]3)cc2C)cc1 [Example 63, 6-(3-chlorophenyl)-2-[5-methyl-1-(4-methylbenzyl)-1H-pyrazol-3-yl]-1H-benzimidazole]
31 | ≤ 1000 | Cc1ccc(Cn2nc(-c3nc4ccc(-c5ccccc5F)cc4[nH]3)cc2C)cc1 [Example 60, 6-(2-fluorophenyl)-2-[5-methyl-1-(4-methylbenzyl)-1H-pyrazol-3-yl]-1H-benzimidazole]
32 | 1000 to 10000 | Cc1ccc(Cn2nc(-c3nc4c(C)cc(Br)cc4[nH]3)cc2C)cc1 [Example 57, 6-bromo-4-methyl-2-[5-methyl-1-(4-methylbenzyl)-1H-pyrazol-3-yl]-1H-benzimidazole]
33 | 1000 to 10000 | Cc1ccc(Cn2nc(C3=NC(c4ccccc4)CO3)cc2C)cc1 (centres unmarked) [Example 69, 2-[5-Methyl-1-(4-methylbenzyl)-1H-pyrazol-3-yl]-4-phenyl-4,5-dihydro-1,3-oxazole]
34 | ≤ 1000 | Cc1ccc(Cn2nc(-c3nc(-c4ccc(C5CCCCC5)cc4)c[nH]3)cc2C)cc1 [Example 68, 3-[4-(4-cyclohexylphenyl)-1H-imidazol-2-yl]-5-methyl-1-(4-methylbenzyl)-1H-pyrazole]
35 | ≤ 1000 | Cc1ccc(Cn2nc(-c3nc(-c4ccc(Br)cc4)co3)cc2C)cc1 [Example 75, 4-(4-bromophenyl)-2-[5-methyl-1-(4-methylbenzyl)-1H-pyrazol-3-yl]-1,3-oxazole]
36 | ≤ 1000 | Cc1ccc(Cn2nc(-c3nc4ccc(-c5ccc(F)cc5)cc4[nH]3)cc2C)cc1 [Example 59, 6-(4-Fluorophenyl)-2-[5-methyl-1-(4-methylbenzyl)-1H-pyrazol-3-yl]-1H-benzimidazole]
37 | ≤ 1000 | Cc1ccc(Cn2nc(-c3nc(-c4ccc(-c5ccc(Cl)cc5)cc4)co3)cc2C)cc1 [Example 76, 4-(4′-chlorobiphenyl-4-yl)-2-[5-methyl-1-(4-methylbenzyl)-1H-pyrazol-3-yl]-1,3-oxazole]
38 | 1000 to 10000 | Cc1ccc(Cn2nc(-c3nc4ccc(C#N)cc4[nH]3)cc2C)cc1 [Example 54, 2-[5-methyl-1-(4-methylbenzyl)-1H-pyrazol-3-yl]-1H-benzimidazole-6-carbonitrile]
39 | ≤ 1000 | Cc1ccc(Cn2nc(-c3nc4ccc(C5CCCCC5)cc4[nH]3)cc2C)cc1 [Example 51, 6-cyclohexyl-2-[5-methyl-1-(4-methylbenzyl)-1H-pyrazol-3-yl]-1H-benzimidazole]
40 | 1000 to 10000 | Cc1ccc(Cn2nc(-c3nc(-c4ccccc4)c(-c4ccccc4)[nH]3)cc2C)cc1 [Example 66, 3-(4,5-diphenyl-1H-imidazol-2-yl)-5-methyl-1-(4-methylbenzyl)-1H-pyrazole]
41 | ≤ 1000 | Cc1ccc(Cn2nc(-c3nc4cc5oc6ccccc6c5cc4[nH]3)cc2C)cc1 [Example 52, 2-[5-methyl-1-(4-methylbenzyl)-1H-pyrazol-3-yl]-1H-[1]benzofuro[2,3-f]benzimidazole]
42 | ≤ 1000 | Cc1ccc(Cn2nc(-c3nc(-c4ccc(-c5ccccc5)cc4)c[nH]3)cc2C)cc1 [Example 67, 3-(4-biphenyl-4-yl-1H-imidazol-2-yl)-5-methyl-1-(4-methylbenzyl)-1H-pyrazole]
43 | 1000 to 10000 | Cc1ccc(Cn2nc(-c3nc4ccc(N5CCOCC5)cc4[nH]3)cc2C)cc1 [Example 53, 2-[5-methyl-1-(4-methylbenzyl)-1H-pyrazol-3-yl]-6-morpholin-4-yl-1H-benzimidazole]
44 | ≤ 1000 | Cc1ccc(Cn2nc(-c3nc4cc5c(cc4[nH]3)OC(F)(F)O5)cc2C)cc1 [Example 55, 2,2-difluoro-6-[5-methyl-1-(4-methylbenzyl)-1H-pyrazol-3-yl]-5H-[1,3]dioxolo[4,5-f]benzimidazole]
